Structures are written as SMILES. Activity calls are given as the source filed them. The calls are words filed in the database; no cut-off is given here.

For orientation: Kd means the concentration at which binding is half-saturated. Usually IC50 stands for the concentration at which inhibition is half-maximal. As usually defined, the ΔTm is the change in melting temperature against a reference sample.

Data set [1] concerns the target Quadruplex DNA. As to the kind of experiment: Binding affinity to c-MYC G4 quadruplex DNA Pu22 (unknown origin) assessed as binding constant by SPR analysis. It is filed as nucleic-acid assay. On the technique in general: SPR reads the build-up and loss of mass on a sensor chip optically.
The nature of data set [2]: Cytotoxicity against human HBL-100 cells assessed as reduction in cell viability measured after 48 hrs by MTT assay. The class given is toxicity, cell-based. On the technique in general: Tetrazolium assays rely on reduction of a dye to a coloured formazan, in cell work by metabolically active cells.
Data set [3] deals with MDA-MB-231. As to the kind of experiment: Cytotoxicity against human MDA-MB-231 cells assessed as reduction in cell viability measured after 48 hrs by MTT assay. The class given is functional, cell-based. Conditions: MDA-MB-231, 48 h.
A short description of data set [4]: Binding affinity to G-rich NRAS RNA (unknown origin) assessed as binding constant by SPR analysis.
Data set [5] in a line: Binding affinity to Hairpin DNA (unknown origin) assessed as binding constant by SPR analysis.
The test system of data set [6] is Quadruplex DNA. As to the kind of experiment: Inhibition of c-MYC G4 quadruplex DNA in HEK293T cells co-transfected with Renilla and firefly luciferase assessed as decrease in relative luciferase measured after 24 hrs by dual luciferase reporter assay. It is filed as cell-based. The settings on record: Homo sapiens. (In general: A reporter such as luciferase makes a cellular process visible.)

The target of data set [7] is Quadruplex DNA. As to the kind of experiment: Binding affinity to c-MYC G4- quadruplex DNA Pu22 (unknown origin) assessed as binding constant by SPR analysis. The class given is nucleic-acid assay.
A short description of data set [8]: Binding affinity to human G-rich Htg22 DNA assessed as binding constant by SPR analysis.
The test system of data set [9] is BLM/c-MYC G4 quadruplex DNA. As to the kind of experiment: Disruption of BLM/c-MYC G4 quadruplex DNA (unknown origin) interaction incubated for 1 hrs by ELISA. It is filed as protein assay.
The test system of the next data set is MCF7. As to the kind of experiment: Cytotoxicity against human MCF7 cells measured after 48 hrs. The class given is functional, cell-based.
In data set [10] the test system is MDA-MB-231. As to the kind of experiment: Downregulation of c-MYC mRNA level in human MDA-MB-231 cells measured after 24 hrs by RT-PCR analysis. It is filed as functional, cell-based.
Data set [11] can be described thus: Binding affinity to G-rich KRAS DNA (unknown origin) assessed as binding constant by SPR analysis.
The nature of data set [12]: Binding affinity to G-rich HRAS DNA (unknown origin) assessed as binding constant by SPR analysis.
For data set [13], the system named is MDA-MB-231. As to the kind of experiment: Antitumor activity against human MDA-MB-231 cells xenografted in BALB/c-nu/nu mouse assessed as tumor growth inhibition at 2.5 mg/kg, ip measured for 24 days. Conditions: MDA-MB-231, 576 h, time 24 day, read-out: TGI. The class given is functional.
Data set [14] deals with DHX36/c-MYC G4 quadruplex DNA. As to the kind of experiment: Disruption of DHX36/c-MYC G4 quadruplex DNA (unknown origin) interaction incubated for 1 hrs by ELISA. It is filed as protein assay.
For data set [15], the system named is MDA-MB-231. As to the kind of experiment: Downregulation of c-MYC expression in human MDA-MB-231 cells measured after 48 hrs by western blot analysis. The class given is functional, cell-based.
Data set [16] relates to NM23-H2/c-MYC G4 quadruplex DNA. As to the kind of experiment: Disruption of NM23-H2/c-MYC G4 quadruplex DNA (unknown origin) interaction incubated for 1 hrs by ELISA. The class given is protein assay.
Data set [17] deals with Quadruplex DNA. As to the kind of experiment: Inhibition of c-MYC G4 quadruplex DNA in HEK293T cells co-transfected with Renilla and firefly luciferase assessed as decrease in relative luciferase at 2.5 to 5 uM measured after 24 hrs by dual luciferase reporter assay. Conditions: Homo sapiens, dose 2.5-5 µM. The class given is cell-based.
Data set [18] deals with Quadruplex DNA. As to the kind of experiment: Stabilization of c-MYC G4 quadruplex DNA Pu22 (unknown origin) assessed as change in melting temperature at 2 uM by CD spectroscopy. It is filed as nucleic-acid assay.
The subject of data set [19] is MDA-MB-231. As to the kind of experiment: Cytotoxicity against human MDA-MB-231 cells measured after 48 hrs. The class given is functional, cell-based.
The target of the next data set is RNA. As to the kind of experiment: Binding affinity to NRAS RNA mutant (unknown origin) assessed as binding constant by SPR analysis.
Data set [20] concerns HepG2. As to the kind of experiment: Cytotoxicity against human HepG2 cells measured after 48 hrs. The class given is functional, cell-based.
In a further data set the test system is SiHa. As to the kind of experiment: Cytotoxicity against human SiHa cells measured after 48 hrs. The class given is functional, cell-based.
Data set [21] concerns MDA-MB-231. As to the kind of experiment: Antitumor activity against human MDA-MB-231 cells xenografted in BALB/c-nu/nu mouse assessed as relative increment ratio at 2.5 mg/kg, ip measured for 24 days. It is filed as functional. Conditions: time 24 day.
In data set [22] the test system is HepG2. As to the kind of experiment: Cytotoxicity against human HepG2 cells assessed as reduction in cell viability measured after 48 hrs by MTT assay. It is filed as functional, cell-based. The settings on record: HepG2, 48 h.
The test system of data set [23] is MDA-MB-231. As to the kind of experiment: Downregulation of VEGF expression in human MDA-MB-231 cells measured after 48 hrs by western blot analysis. The class given is functional, cell-based.
Data set [24] concerns Quadruplex DNA. As to the kind of experiment: Inhibition of c-MYC G4 quadruplex DNA mutant in HEK293T cells co-transfected with Renilla and firefly luciferase assessed as decrease in relative luciferase at 2.5 to 5 uM measured after 24 hrs by dual luciferase reporter assay. The class given is cell-based. Conditions: Homo sapiens, dose 2.5-5 µM.
Data set [25] deals with MDA-MB-231. As to the kind of experiment: Antitumor activity against human MDA-MB-231 cells xenografted in BALB/c-nu/nu mouse assessed as relative increment ratio at 1 mg/kg, ip measured for 24 days. The class given is functional. The settings on record: time 24 day.
For data set [26], the system named is MDA-MB-231. As to the kind of experiment: Antitumor activity against human MDA-MB-231 cells xenografted in BALB/c-nu/nu mouse assessed as tumor growth inhibition at 1 mg/kg, ip measured for 24 days. It is filed as functional. The settings on record: MDA-MB-231, 576 h, time 24 day, read-out: TGI.

As to `CCn1c2ccccc2c2cc(-c3nc(-c4ccc(N5CCN(C)CC5)cc4)c(-c4ccc(N5CCN(C)CC5)cc4)n3-c3ccc(OC)cc3)ccc21`, the equilibrium dissociation constant (Kd) on Quadruplex DNA [1] was over 20 µM; in data set [4] it was over 20 µM; in data set [5], over 20 µM; at Quadruplex DNA [7] it was 7 µM; in data set [8], over 20 µM; in [11], 15.1 µM. In addition, the dissociation constant (Kd) in data set [12] is 15.1 µM; on RNA, over 20 µM. In addition, the IC50 at 48 h in [2] came out at 11.2 µM. The half-maximal inhibitory concentration (IC50) with MDA-MB-231 [3] stood at 5.1 µM; in data set [9], 14.6 µM; in [14] it was 5 µM; in data set [16], 25.8 µM; in the data set with HepG2 [22], 6.1 µM. The outcome with Quadruplex DNA [6], with MCF7, with MDA-MB-231 [10], in the data set on MDA-MB-231 [15], with MDA-MB-231 [19] and in the data set with HepG2 [20] was Active. The outcome in the data set with SiHa was Active. The inhibition in vivo at 2.5 mg/kg in the data set on MDA-MB-231 [13] turned out to be 55.5%. The inhibition entry in the data set with Quadruplex DNA [17] was “Active”. Moreover, in the data set on Quadruplex DNA [18], the ΔTm is 12.5 °C. For the same molecule, the Activity in the data set with MDA-MB-231 [21] amounted to 72.3%.
`Cc1sc2c(c1C)C(c1ccc(Cl)cc1)=NC(CC(=O)OC(C)(C)C)c1nnc(C)n1-2` (stereo not drawn): the result in the data set with Quadruplex DNA [6], with MDA-MB-231 [10], in the data set with MDA-MB-231 [15], in the data set on MDA-MB-231 [23] and with Quadruplex DNA [24] was Active. For the same molecule, in the data set on Quadruplex DNA [17], the inhibition result is “Active”.
Take `CCn1c2ccccc2c2cc(-c3nc(-c4ccc(N5CCN(C)CC5)cc4)c(-c4ccc(N5CCN(C)CC5)cc4)n3-c3ccc(OCCOCCOC4(C)O[C@H]5O[C@H](COC(C)=O)[C@@H](OC(C)=O)[C@H](OC(C)=O)[C@H]5O4)cc3)ccc21` (single isomer, unassigned): the dissociation constant Kd is over 20 µM at Quadruplex DNA [1]; over 20 µM in [4]; over 20 µM in [5]; 1.8 µM on Quadruplex DNA [7]; over 20 µM in data set [8]; 12.7 µM in data set [11]. For the same molecule, the Kd in [12] is 13.9 µM; at RNA, over 20 µM. Moreover, the concentration for half-maximal inhibition (IC50) at 48 h in data set [2] was 77.8 µM. The IC50 was determined as 2.9 µM with MDA-MB-231 [3]; 6.8 µM in [9]; 15.9 µM in data set [14]; 3.7 µM in [16]; 3 µM with HepG2 [22]. In the data set on Quadruplex DNA [18], the thermal shift (ΔTm) is 22.1 °C.
`COc1cccc2c1C(=O)c1c(O)c3c(c(O)c1C2=O)C[C@@](O)(C(=O)CO)C[C@@H]3O[C@H]1C[C@H](N)[C@H](O)[C@H](C)O1` [DOXORUBICIN]: in the data set on MDA-MB-231 [25], the Activity amounted to 85.4%. Besides, in the data set with MDA-MB-231 [26], the inhibition in vivo at 1 mg/kg is 80.2%.

Source of the values: ChEMBL document CHEMBL5104180, “Design, Synthesis, and Evaluation of New Sugar-Substituted Imidazole Derivatives as Selective c-MYC Transcription Repressors Targeting the Promoter G-Quadruplex” (J Med Chem, 2022).
